Counter-ions that a name gives are not always drawn.
What was measured:
tobacco = assay: Phytotoxicity rating after foliar spray, tobacco; assay type: in vivo, Nicotiana tabacum (tobacco); settings: alone or with 5 mM NaSA, COC 0.1%, mean rating 1-5, n = 5 plants
Method: (§1) In all experiments, deionized ultra-pure water was used in preparing solutions. Spray solutions were used as soon as possible after mixing.
(§2) COC was added to all spray solutions at a rate of 0.10% (v/v). For all treatments containing both an herbicide and a salicylate, these materials were mixed and applied in a single spray solution (commonly known as a tank mix). After spraying, plants were moved to the greenhouse and arranged in a randomized complete block experimental design. Plants were evaluated for phytotoxicity/herbicidal effects after spraying by assessing damage according to the following scale:
(§3) 5=100% leaf area affected (dead)
(§4) All the data were subject to an analysis of variance, and the mean separations were determined with Duncan's multiple range test at α=0.05.

Giant Foxtail = assay: Phytotoxicity rating after foliar spray, Giant Foxtail; assay type: in vivo, Setaria faberi (giant foxtail); settings: Table 3; glyphosate 0.2% (v/v), alone or with 5 mM NaSA; COC 0.1%; mean rating 1-5; n = 5 plants
Method: as §1, §2, §3, §4

Lambsquarters = assay: Phytotoxicity rating after foliar spray, Lambsquarters; assay type: in vivo, Chenopodium album (lambsquarter); settings: Table 4, alone or with 5 mM NaSA, COC 0.1%, mean rating 1-5, n = 6 plants
Method: as §1, §2, §3, §4

NK S2676 Soybean = assay: Phytotoxicity rating after foliar spray, Roundup Ready soybean; settings: Table 5, glyphosate-tolerant crop, n = 4 plants
Method: as §1, §2, §3, §4
Roundup Ready crops are tolerant to glyphosate. This tolerance is conferred by genetic modification of the crop species by the insertion of a glyphosate-insensitive EPSP synthase.

[1] = Table 2, glyphosate or Roundup 0.2% (v/v glyphosate)
[2] = glyphosate 0.1% (v/v) + COC 0.1%, mean rating 1-5

## O=C(O)CNCP(=O)(O)O [Glyphosate, N-(phosphonomethyl)glycine, monoisopropylamine salt]
tobacco; Table 1, glyphosate 0.04%
  Phytotoxicity at 4d: 1.2 A
  Phytotoxicity at 6d: 1.7 BC
  Phytotoxicity at 8d: 2 B
  Phytotoxicity at 11d: 3.1 B
  Phytotoxicity at 14d: 3.6 B
tobacco; Table 1, glyphosate 0.2% (v/v)
  Phytotoxicity at 4d: 1.5 B
  Phytotoxicity at 6d: 2.2 CD
  Phytotoxicity at 8d: 3.1 D
  Phytotoxicity at 11d: 4.1 D
  Phytotoxicity at 14d: 4.9 C
tobacco; [1]
  Phytotoxicity at 5f: 1.5 BC
  Phytotoxicity at 2d: 1.3 B
  Phytotoxicity at 8d: 3.3 C
  Phytotoxicity at 13d: 4.9 B
Giant Foxtail
  Phytotoxicity at 8d: 3.8 A
  Phytoxicity at 6d: 2.0 B
  Phytoxicity at 11d: 4.9 B
Lambsquarters; glyphosate 0.004%
  Phytotoxicity at 3d: 1.0 A
  Phytotoxicity at 7d: 1.3 AB
  Phytotoxicity at 11d: 1.3 AB
Lambsquarters; glyphosate 0.02%
  Phytotoxicity at 3d: 1.0 A
  Phytotoxicity at 7d: 1.5 ABC
  Phytotoxicity at 11d: 2.1 BC
Lambsquarters; glyphosate 0.04%
  Phytotoxicity at 3d: 1.0 A
  Phytotoxicity at 7d: 1.6 BC
  Phytotoxicity at 11d: 2.4 C
Lambsquarters; glyphosate 0.2% (v/v)
  Phytotoxicity at 3d: 1.4 BC
  Phytotoxicity at 7d: 2.4 D
  Phytotoxicity at 11d: 4.0 D
NK S2676 Soybean; [2]
  Phytotoxicity at 1d: 1.6 BC
  Phytotoxicity at 4d: 1.8 BC
  Phytotoxicity at 6d: 1.9 C
  Phytotoxicity at 11d: 1.9 D

## O=C([O-])c1ccccc1O.[Na+] [NaSA, sodium salicylate]
NK S2676 Soybean; NaSA 5 mM + COC 0.1%, mean rating 1 = no damage to 5 = dead
  Phytotoxicity at 4d: 1.5 B

— patent US20030186814A1, “Enhanced herbicide composition” (Valent BioSciences Corporation, priority 2002, published 2003)
